Data on 86 compounds can be found in PubChem BioAssay AID977628 (Broad Institute, 2014).

What is called AC50 is the concentration giving half of the maximal activity seen.

Inconclusive results are not listed. Calls of active or inactive are those of the source.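 Rule for the calls: active = compound lowering the normal-ribosome reporter at least twice as much as the humanized-ribosome reporter, growth loss under a set limit; inconclusive = no clear call, values can overlap the other calls; inactive = the rest.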 Bounds are passed on as bounds.

The subject of the experiment is E. coli WT GFP strain growth, fluorescence, 24 h. The experiment in a line: E. coli growth inhibition, wild-type GFP versus h24 humanized RFP strain, dose response, h24 mutant RFP vs wild-type GFP, cherry-pick (AID 977628).
Turning to `CN(c1ccccc1)S(=O)(=O)c1cccc(C(=O)OCC(=O)NCc2ccco2)c1`, the AC50 is > 100 µM (inactive).
In the case of `Cc1ccc2nc(SCC(=O)c3ccc(O)cc3O)[nH]c2c1` it was > 100 µM (inactive).
Take `CC(=O)N1CCN(c2nc(-c3cccs3)nc3ccccc23)CC1`: the AC50 was > 100 µM (inactive).
On to `COc1ccc2[nH]cc(CCNC(=O)C3CC(=O)N(c4ccc(Cl)cc4)C3)c2c1` (stereo unspecified), for which the AC50 was > 100 µM (inactive).
For `O=C(Nc1cc(F)ccc1F)N1CCCCN2[C@@H](CO)[C@H](c3ccc(-c4ccncc4)cc3)[C@@H]2C1` the value was > 100 µM (inactive); for `O=C1NC(=O)C2(Cc3cc([N+](=O)[O-])ccc3N3CCN(C(=O)c4ccccc4)CC32)C(=O)N1` (stereo unspecified), > 100 µM (inactive); for `COc1ccc(C)cc1-n1c(=O)c2ccccc2c2ccccc2c1=O`, > 100 µM (inactive).
For `CCCc1c(C(=O)Nc2ccc(OC)cc2)cnn1-c1ccccc1`, the AC50 was > 100 µM (inactive).
In the case of `Fc1cccc(Cc2c(-c3ccco3)nc3c4ccccc4ccn23)c1` it was > 100 µM (inactive); in that of `O=C(O)c1nn2c(C(F)(F)F)cc(-c3cccs3)nc2c1Cl`, > 100 µM (inactive).
With `Cc1cccc(S(=O)(=O)NC(=O)C2(C)CCN2C(=O)c2ccccc2CCc2ccccc2)c1` (stereo unspecified), the AC50 is > 100 µM (inactive).
Take `CCN(CC)S(=O)(=O)c1cc(NS(=O)(=O)c2cccc(Cl)c2Cl)ccc1C`: the AC50 was > 100 µM (inactive).
As to `Fc1ccc(-c2nnc(-c3ccc4ccccc4c3)o2)cc1`, the AC50 is > 100 µM (inactive).
For the compound `CC(=O)c1ccc(N2CCN(C(=O)C3CCN(S(=O)(=O)c4ccc5c(c4)CC(C)N5C(C)=O)CC3)CC2)cc1` (stereo unspecified), the AC50 was > 100 µM (inactive).
For `CSc1ccccc1NC(=O)CN(c1cccc(C)c1)S(C)(=O)=O` the value was > 100 µM (inactive).
For `C=CCN(c1ccccc1)S(=O)(=O)c1cccc2cccnc12` the value was > 100 µM (inactive).
In the case of `O=C(CCCOc1ccc(Cl)cc1Cl)Nc1ccccc1C(=O)O` it was > 100 µM (inactive); in that of `O=C1Nc2ccc(F)cc2C12Nc1ccccc1-c1nnc(SCc3ccccc3)nc1O2` (stereo unspecified), > 100 µM (inactive); in that of `COc1ccccc1CN1Cc2ccccc2Oc2ccccc2S1(=O)=O`, > 100 µM (inactive).
Regarding `CCc1ccc(OCC(=O)NCc2ccco2)c(Br)c1`, the AC50 was > 100 µM (inactive).
In the case of `COc1ccc(Cn2c(=O)c3[nH]cnc3n(-c3ccc(C)cc3)c2=O)cc1` it was > 100 µM (inactive); in that of `COc1cccc(NC(=O)C2CCC(CNS(=O)(=O)c3cccc4cccnc34)CC2)c1` (stereo unspecified), > 100 µM (inactive); in that of `O=C(O)c1ccc(Oc2ccc([N+](=O)[O-])cc2)c([N+](=O)[O-])c1`, > 100 µM (inactive).
For the compound `COc1ccc(CNS(=O)(=O)c2ccc3c(c2)NC(=O)C(C)S3)cc1` (stereo unspecified), the AC50 was > 100 µM (inactive).
In the case of `CC1(C)CC(=O)c2cnc(N3CCc4ccccc43)nc2C1` it was > 100 µM (inactive).
In the case of `COc1ccc(OC)c(-c2nn(-c3ccccc3)cc2C(=O)N2CCc3ccccc3C2)c1` it was > 100 µM (inactive); in that of `COc1ccccc1-c1cc2nc(NCCc3ccncc3)ccn2n1`, > 100 µM (inactive).
As to `CC1Sc2ccc(S(=O)(=O)NCc3ccccc3)cc2NC1=O` (stereo unspecified), the AC50 is > 100 µM (inactive).
In the case of `Cc1ccc(S(=O)(=O)N2CC(=O)Nc3ccccc32)cc1C` it was > 100 µM (inactive); in that of `CC(NCc1ccc(S(N)(=O)=O)cc1)C(=O)Nc1cc([N+](=O)[O-])ccc1Cl` (stereo unspecified), > 100 µM (inactive).
For `Cc1cc(Br)ccc1SCC(=O)OCC(=O)NCc1ccco1` the value was > 100 µM (inactive).
With `O=C(NCc1ccccc1Cl)[C@H]1CCCN1C(=O)[C@H]1CCCN1C(=O)c1cccc2ccccc12`, the AC50 was > 100 µM (inactive).
`COCc1nnc(NC(=O)c2ccc(S(=O)(=O)N3CCCC3)cc2)o1`: the AC50 is > 100 µM (inactive).
In the case of `COc1ccc(C(=O)N(c2ccccc2)c2nccc3ccccc23)cc1OC` it was > 100 µM (inactive); in that of `COC(=O)c1ccc(CN2CCCC(CO)(Cc3ccccc3F)C2)cc1` (stereo unspecified), > 100 µM (inactive); in that of `Cc1ccc(C(=O)C2CCN(CC(=O)Nc3nc(C)cs3)CC2)cc1`, > 100 µM (inactive).
In the case of `COC(=O)c1sccc1NC(=O)Cn1nnc(-c2ccccc2C)n1` it was > 100 µM (inactive).
In the case of `CCn1nc(C)cc1C(=O)N1CCCC(C(=O)c2ccc3ccccc3c2)C1` (stereo unspecified) it was > 100 µM (inactive); in that of `COc1ccc(OC)c(S(=O)(=O)Nc2cccc3ccccc23)c1`, > 100 µM (inactive).
For `COc1cccc(OC)c1OCCCOc1cccc2cccnc12`, the AC50 is > 100 µM (inactive).
For `COc1cc(SC)ccc1C(=O)N1CCN(c2ccccc2F)CC1` the value was > 100 µM (inactive); for `O=c1[nH]c(C2CCN(S(=O)(=O)c3ccc4c(c3)OCCO4)CC2)nc2c1nnn2Cc1ccccc1F`, > 100 µM (inactive); for `CN(C)CCCNc1ccc(-c2cc(Nc3cccc(Cl)c3)ncn2)cn1`, > 100 µM (inactive).
In the case of `COc1cccc(C(NC(C)=O)c2nc(-c3ccccc3OC)cs2)c1` (stereo unspecified), the AC50 is > 100 µM (inactive).
Consider `COc1cc(OC)cc(C(=O)N[C@H](C(=O)OCC(=O)Nc2ccc(F)c(F)c2F)C(C)C)c1`, for which the AC50 is > 100 µM (inactive).
Consider `COc1ccc(OC)c(-c2nnc3n2N=C(c2ccc(OC)c(OC)c2)CS3)c1`, for which the AC50 is > 100 µM (inactive).
In the case of `O=C1CCCN1CCCNc1ncnc2c1[nH]c1ccc(Cl)cc12` it was > 100 µM (inactive); in that of `COc1ccc(NS(=O)(=O)c2ccc(Cl)c(NC(=O)c3ccccc3F)c2)cc1`, > 100 µM (inactive).
For `O=S(=O)(c1ccc(Cl)cc1)N1CCN=C1SCc1cccc(Cl)c1`, the AC50 was > 100 µM (inactive).
Turning to `O=C(C[n+]1cc(-c2ccc(Cl)c(Cl)c2)n2c1CCC2)OCc1ccccc1`, the AC50 was > 100 µM (inactive).
`COc1ccccc1-c1ccc(SCc2ccc(F)cc2)nn1`: the AC50 is > 100 µM (inactive).
Consider `COc1ccccc1CNC(=O)CSc1ccc(C)cc1`, for which the AC50 is > 100 µM (inactive).
Take `COCCNc1cc(-c2ccccc2)nc2cc(-c3cccc(F)c3)nn12`: the AC50 was > 100 µM (inactive).
For `CCCCn1c(NS(=O)(=O)c2ccc(C)cc2)c(C(=O)OCC)c2nc3ccccc3nc21` the value was > 100 µM (inactive).
For `O=C(Nc1ccc2c(c1)OCO2)c1ccc([N+](=O)[O-])cc1[N+](=O)[O-]` the value was > 100 µM (inactive).
In the case of `CCOc1ccccc1N1CCN(Cc2cn[nH]c2-c2ccc(F)cc2)CC1` it was > 100 µM (inactive); in that of `CC(=O)c1cccc(NC(=O)COC(=O)CCC(=O)c2ccc(F)cc2)c1`, > 100 µM (inactive).
On to `COc1cccc(Nc2nc(N)c([N+](=O)[O-])c(NCc3ccccc3)n2)c1`, for which the AC50 is > 100 µM (inactive).
For `CCOC(=O)c1csc(NC(=O)CC2CCCC2)n1` the value was > 100 µM (inactive); for `O=C(O)C1CCCCC1C(=O)Nc1ccc(OCc2ccccc2)cc1` (stereo unspecified), > 100 µM (inactive).
In the case of `O=C(Cc1cccc(NC(=O)C2CCN(C(=O)CCc3ccccc3)CC2)c1)Nc1cccc(C(=O)N2CCCC2)c1` it was > 100 µM (inactive); in that of `COc1ccc(CNc2ccc([N+](=O)[O-])cc2C)cc1`, > 100 µM (inactive); in that of `S=c1[nH]nc(-c2ccc3ccccc3n2)n1-c1ccc2c(c1)OCCO2`, > 100 µM (inactive).
Turning to `CC1CCCCN1CC(O)COCCC12CC3CC(CC(C3)C1)C2` (stereo unspecified), the AC50 was > 100 µM (inactive).
On to `CCC(C)C(=O)Nc1nc2ccc(OC)cc2s1` (stereo unspecified), for which the AC50 was > 100 µM (inactive).
In the case of `C=CCn1c(C)cc(C(=O)COC(=O)CNC(=O)c2ccccc2)c1C`, the AC50 is > 100 µM (inactive).
In the case of `COc1ccccc1-n1c(Cc2ccccc2)nc2ccccc2c1=O` it was > 100 µM (inactive).
Consider `CC(Nc1ncnc2ccccc12)c1ccccc1` (stereo unspecified), for which the AC50 was > 100 µM (inactive).
On to `COc1ccc(CNc2cc([N+](=O)[O-])ccc2OC)cc1`, for which the AC50 was > 100 µM (inactive).
As to `O=C(Cc1cccc2ccccc12)Nc1ccccc1C(=O)O`, the AC50 is > 100 µM (inactive).
In the case of `O=c1[nH]c(C2CCCN(S(=O)(=O)c3ccccc3Cl)C2)nc2c1nnn2Cc1ccc2c(c1)OCCO2` (stereo unspecified), the AC50 was > 100 µM (inactive).
As for `COc1ccccc1Cn1c(=S)[nH]c2ccc(F)cc2c1=O`, the AC50 is > 100 µM (inactive).
Regarding `CC(=O)Oc1ccc(N(C(C)=O)S(=O)(=O)c2ccc(C)cc2)c2ccccc12`, the AC50 is > 100 µM (inactive).
Regarding `O=C(O)c1ccccc1Nc1cc(Cl)c2nonc2c1[N+](=O)[O-]`, the AC50 was > 100 µM (inactive).
For `O=C(c1cc(COc2c(F)cccc2F)on1)N1C[C@H]2CC[C@H]1C2` the value was > 100 µM (inactive).
`COC(=O)c1ccc2nc(-c3cccc(Br)c3)c(Cc3ccsc3)n2c1`: the AC50 is > 100 µM (inactive).
Consider `Cc1cc(Br)ccc1NC(=O)c1ccco1`, for which the AC50 is > 100 µM (inactive).
In the case of `CCCn1nnnc1NCc1ccccc1OCc1cccs1` it was > 100 µM (inactive); in that of `COc1cccc(CNC(=O)CCSCc2ccccc2F)c1`, > 100 µM (inactive).
For `CSc1cccc(NC(=O)CSc2nc3ccccc3o2)c1` the value was > 100 µM (inactive); for `CCOC(=O)Cc1csc(NC(=O)c2cc3ccccc3o2)n1`, > 100 µM (inactive).
In the case of `Cc1ccccc1-n1nnnc1SCCCC(=O)c1ccc(F)cc1` it was > 100 µM (inactive); in that of `c1cncc(-c2nc3cc4ccccc4cc3[nH]2)c1`, > 100 µM (inactive); in that of `O=C(c1ccc(Cl)cc1)N1CCN(c2cccc3[nH]ccc23)CC1`, > 100 µM (inactive).
For the compound `COc1ccc(OC2C(=O)N(Cc3ccc4c(c3)OCO4)C2c2sccc2C)cc1` (stereo unspecified), the AC50 is > 100 µM (inactive).
In the case of `O=C(CSc1ccccc1)Nc1cccc(NC(=O)c2ccco2)c1` it was > 100 µM (inactive).
